Earlier results as cited in PubChem BioAssay AID1259409 (Chemical Carcinogenesis Research Information System (CCRIS), 2018).

Tested on: rodent chemically induced tumor inhibition, incidence and multiplicity
Test: CCRIS tumor inhibitor studies
Conditions: Route [Inhibitor]: ORAL, Species: RAT, Strain/Sex: F344/MALE; for outcome: Dose [Carcinogen]: 0.1% IN DRINKING WATER FOR 1 WK (STUDY DURATION: 32 WK)

## COc1cc(/C=C/C(=O)O[C@H]2CC[C@]34C[C@]35CC[C@]3(C)[C@@H]([C@H](C)CCC=C(C)C)CC[C@@]3(C)[C@@H]5CC[C@H]4C2(C)C)ccc1O
Carcinogen: 2,2'-DIHYDROXY-DI-N-PROPYLNITROSAMINE [621-64-7], Dose [Inhibitor]: 0.04% IN DIET FOR 30 WK BEGINNING 1 WK POST LAST CARCINOGEN DOSE (STUDY DURATION: 32 WK), Target Tissue: Type of Lesion: LUNG: CARCINOMA, Promoter: NONE
  outcome: 0/20 (0%), 0/20 (0%), 0%, not significant
Carcinogen: 2,2'-DIHYDROXY-DI-N-PROPYLNITROSAMINE [621-64-7], Dose [Inhibitor]: 0.2% IN DIET FOR 30 WK BEGINNING 1 WK POST LAST CARCINOGEN DOSE (STUDY DURATION: 32 WK), Target Tissue: Type of Lesion: LUNG: CARCINOMA, Promoter: NONE
  outcome: 0/20 (0%), 2/20 (10%), -100%, not significant
Carcinogen: 2,2'-DIHYDROXY-DI-N-PROPYLNITROSAMINE [621-64-7], Dose [Inhibitor]: 1% IN DIET FOR 30 WK BEGINNING 1 WK POST LAST CARCINOGEN DOSE (STUDY DURATION: 32 WK), Target Tissue: Type of Lesion: LUNG: CARCINOMA, Promoter: NONE
  outcome: 0/20 (0%), 10/20 (50%), -100%, p<0.001
Carcinogen: 2,2'-DIHYDROXY-DI-N-PROPYLNITROSAMINE [621-64-7], N-ETHYL-N-HYDROXYETHYLNIATROSAMINE [13147-25-6], 3,2'-DIMETHYL-4-AMINO, Carcinogen: 2,2'-DIHYDROXY-DI-N-PROPYLNITROSAMINE [621-64-7], N-ETHYL-N-HYDROXYETHYLNIATROSAMINE [13147-25-6], 3,2'-DIMETHYL-4-AMINO, Dose [Inhibitor]: 1% IN DIET FOR 32 WK BEGINNING 1 WK POST LAST CARCINOGEN DOSE (STUDY DURATION: 32 WK), Target Tissue: Type of Lesion: LIVER: ADENOMA, Dose [Carcinogen]: 1000 MG/KG BW DHPN IP 2X/3 WK, 1500 MG/KG BW EHEN IP 2X/3 WK, 75 MG/KG BW DMAB SC 3X/3 WK;, Dose [Carcinogen]: 1000 MG/KG BW DHPN IP 2X/3 WK, 1500 MG/KG BW EHEN IP 2X/3 WK, 75 MG/KG BW DMAB SC 3X/3 WK;, Promoter: NONE
  tumour outcome (control, treated, inhibition, significance): 9/14 (64%), 5/13 (38%), 41%, p<0.05
Carcinogen: 2,2'-DIHYDROXY-DI-N-PROPYLNITROSAMINE [621-64-7], N-ETHYL-N-HYDROXYETHYLNIATROSAMINE [13147-25-6], 3,2'-DIMETHYL-4-AMINO, Carcinogen: 2,2'-DIHYDROXY-DI-N-PROPYLNITROSAMINE [621-64-7], N-ETHYL-N-HYDROXYETHYLNIATROSAMINE [13147-25-6], 3,2'-DIMETHYL-4-AMINO, Dose [Inhibitor]: 1% IN DIET FOR 32 WK BEGINNING 1 WK POST LAST CARCINOGEN DOSE (STUDY DURATION: 32 WK), Target Tissue: Type of Lesion: LIVER: CARCINOMA, Dose [Carcinogen]: 1000 MG/KG BW DHPN IP 2X/3 WK, 1500 MG/KG BW EHEN IP 2X/3 WK, 75 MG/KG BW DMAB SC 3X/3 WK;, Dose [Carcinogen]: 1000 MG/KG BW DHPN IP 2X/3 WK, 1500 MG/KG BW EHEN IP 2X/3 WK, 75 MG/KG BW DMAB SC 3X/3 WK;, Promoter: NONE
  tumour outcome (control, treated, inhibition, significance): 6/14 (43%), 3/13 (23%), 47%, not significant
Carcinogen: 2,2'-DIHYDROXY-DI-N-PROPYLNITROSAMINE [621-64-7], N-ETHYL-N-HYDROXYETHYLNIATROSAMINE [13147-25-6], 3,2'-DIMETHYL-4-AMINO, Carcinogen: 2,2'-DIHYDROXY-DI-N-PROPYLNITROSAMINE [621-64-7], N-ETHYL-N-HYDROXYETHYLNIATROSAMINE [13147-25-6], 3,2'-DIMETHYL-4-AMINO, Dose [Inhibitor]: 1% IN DIET FOR 32 WK BEGINNING 1 WK POST LAST CARCINOGEN DOSE (STUDY DURATION: 32 WK), Target Tissue: Type of Lesion: LUNG: ADENOMA, Dose [Carcinogen]: 1000 MG/KG BW DHPN IP 2X/3 WK, 1500 MG/KG BW EHEN IP 2X/3 WK, 75 MG/KG BW DMAB SC 3X/3 WK;, Dose [Carcinogen]: 1000 MG/KG BW DHPN IP 2X/3 WK, 1500 MG/KG BW EHEN IP 2X/3 WK, 75 MG/KG BW DMAB SC 3X/3 WK;, Promoter: NONE
  tumour outcome (control, treated, inhibition, significance): 7/14 (50%), 11/13 (85%), -70%, not significant
Carcinogen: 2,2'-DIHYDROXY-DI-N-PROPYLNITROSAMINE [621-64-7], N-ETHYL-N-HYDROXYETHYLNIATROSAMINE [13147-25-6], 3,2'-DIMETHYL-4-AMINO, Carcinogen: 2,2'-DIHYDROXY-DI-N-PROPYLNITROSAMINE [621-64-7], N-ETHYL-N-HYDROXYETHYLNIATROSAMINE [13147-25-6], 3,2'-DIMETHYL-4-AMINO, Dose [Inhibitor]: 1% IN DIET FOR 32 WK BEGINNING 1 WK POST LAST CARCINOGEN DOSE (STUDY DURATION: 32 WK), Target Tissue: Type of Lesion: LUNG: CARCINOMA, Dose [Carcinogen]: 1000 MG/KG BW DHPN IP 2X/3 WK, 1500 MG/KG BW EHEN IP 2X/3 WK, 75 MG/KG BW DMAB SC 3X/3 WK;, Dose [Carcinogen]: 1000 MG/KG BW DHPN IP 2X/3 WK, 1500 MG/KG BW EHEN IP 2X/3 WK, 75 MG/KG BW DMAB SC 3X/3 WK;, Promoter: NONE
  tumour outcome (control, treated, inhibition, significance): 1/14 (8%), 7/13 (54%), -575%, p<0.05
Carcinogen: 2,2'-DIHYDROXY-DI-N-PROPYLNITROSAMINE, 53609-64-6, N-ETHYL-N-HYDROXYETHYL- NITROSAMINE, 13147-25-6, 3,2'-DIMETHYL-4-, Carcinogen: 2,2'-DIHYDROXY-DI-N-PROPYLNITROSAMINE, 53609-64-6, N-ETHYL-N-HYDROXYETHYL- NITROSAMINE, 13147-25-6, 3,2'-DIMETHYL-4-, Dose [Inhibitor]: 0, 1% IN DIET BEGINNING 1 WK POST LAST CARCINOGEN DOSE AND CONTINUING FOR 32 WK (STUDY DURATION: 36 WK), Target Tissue: Type of Lesion: LARGE INTESTINE: ADENOMA, Dose [Carcinogen]: 1000 MG/KG IP DHPN 2X, 1500 MG/KG GAV EHEN 2X AND 75 MG/KG SC DMAB 3X GIVEN OVER THE INITIAL 3 WK PERIOD AT 3-4 D INTERV, Promoter: NONE USED
  tumour outcome (control, treated, inhibition, significance): 7/14 (50%), 5/13 (38%), 24%, not significant
Carcinogen: 2,2'-DIHYDROXY-DI-N-PROPYLNITROSAMINE, 53609-64-6, N-ETHYL-N-HYDROXYETHYL- NITROSAMINE, 13147-25-6, 3,2'-DIMETHYL-4-, Carcinogen: 2,2'-DIHYDROXY-DI-N-PROPYLNITROSAMINE, 53609-64-6, N-ETHYL-N-HYDROXYETHYL- NITROSAMINE, 13147-25-6, 3,2'-DIMETHYL-4-, Dose [Inhibitor]: 0, 1% IN DIET BEGINNING 1 WK POST LAST CARCINOGEN DOSE AND CONTINUING FOR 32 WK (STUDY DURATION: 36 WK), Target Tissue: Type of Lesion: LARGE INTESTINE: CARCINOMA, Dose [Carcinogen]: 1000 MG/KG/ IP DHPN 2X, 1500 MG/KG GAV EHEN 2X 75 MG/KG SC DMAB 3X GIVEN OVER THE INITIAL 3 WK PERIOD AT 3-4 D INTERVALS, Promoter: NONE USED
  tumour outcome (control, treated, inhibition, significance): 3/14 (21%), 6/13 (46%), -119%, not calculated
